Where two headings read alike, the source gives them in different places.
What was measured:
[1] = Stability study (three storage/solution conditions, by RP-HPLC); assay type: physicochemical; parameters: key to Stability, Room Temp Dry / Stability, 30° C./65% Humidity / Stability, 37° C. H2O/pH 7.4: “+” meaning stable; “−” meaning quickly degradable; settings: for Stability, Room Temp Dry: room temperature (20° C.) under inert dry gas, determined by RP-HPLC; for Stability, 30° C./65% Humidity: sealed with double bags in stability chamber
Procedure: Compounds were tested for their stability, under three different conditions (see Table 2), by the following procedures: • 1. Room Temperature and Dry: compounds were left at the room temperature (20° C.) under inert dry gas; • 2. 30° C. and 65% Humidity: compounds sealed with double bags were put into a stability chamber. Temperature was set at 30° C. while the humidity was controlled at 65%. • 3. 37° C. pH=7.4 solution: compounds were dissolved in PBS solution and then the entire solution was submerged under a 37° C. water bath.

MM1.S cells = experiment: Cell viability assay (MTS assay); assay type: cell-based
Procedure: Cell Viability Assay 1. Cell Line
The multiple myeloma cell line MM1.S was obtained from the ATCC.
Eight thousand MM1.S cells per well were seeded in tissue culture-treated 96-well plate (Nunc) and incubated overnight.
Each well had the same DMSO concentration of 0.05%.
The effects of compounds on cell viability were assessed using CellTiter 96®A Queous One solution Reagent (Promega; G3580).
After being treated with various compounds for 72 hrs, cells in the 96-well plate were centrifuged 1000 rpm for 3 minutes, and 180 ul supernatant were removed from each well. Cells were incubated with 20 ul CellTiter 96®A Queous One solution Reagent and put into incubator with 5% CO2. at 37° C. for an additional 4 hrs. The absorbance was measured at 490 nm with Automatic Microplate reader (Infinite M1000 pro, Tecan). […] Four sets of experiments for each drug combinations were carried out. Cell viability (Percentage of Cell Survival) was calculated by the following formula: cell viability (%)=(average absorbance of treated group-average absorbance of blank)/(average absorbance of untreated group−average absorbance of blank)×100%. IC50 values were calculated using Prism software.

[2] = dissolved in PBS solution, 37° C. water bath, RP-HPLC
[3] = Homo sapiens, MM1.S, 72 h, MM1.S cells, 72 hrs treatment, MTS assay, n=4, read-out: IC50
[4] = MM1.S cells, 72 hrs treatment, MTS assay
[5] = MM1.S cells, 72 hrs treatment, MTS assay, n=4, read-out: IC50

Structure (SMILES) | Stability, 37° C. H2O/pH 7.4 (result in words) [1, 2] | Stability, Room Temp Dry [1] | Stability, 30° C./65% Humidity ([1]; RP-HPLC) | IC50 (MM1.S cells; [3]) [nM] | IC50 (MM1.S cells; [5]) [nM] | Stability, 37° C. H2O/pH 7.4 [1, 2] | IC50 (MM1.S cells; Homo sapiens, MM1.S, 72 h) [nM] | Cytotoxic effects on MM1.S cells (in words) (MM1.S cells; [4])
CC(C)C[C@H](NC(=O)CNC(=O)c1cc(Cl)ccc1Cl)B(O)O [HL01-17] | Decompose Instant | + | − | 9.45 |  |  |  | 
CC(C)C[C@H](NC(=O)CNC(=O)c1cc(Cl)ccc1Cl)[B-]12OC(=O)C[N+]1(C)CC(=O)O2 (stereo partly drawn) [HL01-15] |  | + | + |  |  | + | 6.85 | weaker than the other compounds
CC(C)C[C@H](NC(=O)[C@H](Cc1ccccc1)NC(=O)c1cnccn1)[B-]12OC(=O)C[N+]1(C)CC(=O)O2 (stereo partly drawn) [HL01-11] |  | + | + | ~2 | 1.62 | + |  | strong cytotoxic effects

Continued, in another order:

Stability, 37° C. H2O/pH 7.4 (result in words) [1, 2] | Stability, Room Temp Dry [1] | Stability, 30° C./65% Humidity ([1]; RP-HPLC) | IC50 (MM1.S cells; [3]) [nM] | IC50 (MM1.S cells; [5]) [nM] | Structure (SMILES) | Stability, 37° C. H2O/pH 7.4 [1, 2] | IC50 (MM1.S cells; Homo sapiens, MM1.S, 72 h) [nM] | Cytotoxic effects on MM1.S cells (in words) (MM1.S cells; [4])
 | − |  |  |  | CC(C)C[C@H](NC(=O)[C@H](Cc1ccccc1)NC(=O)c1cnccn1)B(O)O [HL01-0, [(1R)-3-methyl-1-[[(2S)-1-oxo-3-phenyl-2[(pyrazinylcarbonyl)amino]propyl]amino]butyl] boronic acid, reference compound] |  |  | 
 |  |  |  | 1.76 | CC(C)C[C@H](NC(=O)[C@H](Cc1ccccc1)NC(=O)c1cnccn1)B(O)O [Bortezomib, reference compound] |  |  | strong cytotoxic effects

Reference: patent publication US10144761B2, “Chiral specific boron-containing compounds and their use in treating cancer or amyloidosis” (HANLIN SCIENTIFIC, INC., priority 2015, dated 2018)
